According to the NIST ThermoML archive (doi:10.1016/j.jct.2009.07.014):

Test: excess molar enthalpy (molar enthalpy of mixing); xn = mol fraction of the nth substance listed
Conditions: 101.3 kPa, Liquid, Flow calorimetry

CCCCO [butan-1-ol] + CCCCCCC
excess molar enthalpy [kJ/mol]
Conditions | 298.15 K | 313.15 K
x2 = 0.0502 | 0.0736 | 0.103
x2 = 0.0999 | 0.147 | –
x2 = 0.1 | – | 0.205
x2 = 0.1504 | 0.217 | –
x2 = 0.1505 | – | 0.304
x2 = 0.2 | 0.282 | –
x2 = 0.2001 | – | 0.395
x2 = 0.2498 | 0.344 | –
x2 = 0.2499 | – | 0.48
x2 = 0.2998 | 0.402 | –
x2 = 0.2999 | – | 0.56
x2 = 0.3497 | 0.453 | –
x2 = 0.3498 | – | 0.632
x2 = 0.4004 | 0.499 | 0.697
x2 = 0.4496 | 0.54 | 0.751
x2 = 0.5001 | 0.575 | –
x2 = 0.5002 | – | 0.795
x2 = 0.5498 | 0.601 | –
x2 = 0.5499 | – | 0.827
x2 = 0.5996 | 0.618 | –
x2 = 0.5997 | – | 0.847
x2 = 0.6504 | 0.623 | –
x2 = 0.6505 | – | 0.854
x2 = 0.6999 | 0.617 | 0.847
x2 = 0.7501 | 0.598 | 0.825
x2 = 0.7998 | 0.567 | 0.789
x2 = 0.8502 | 0.522 | 0.733
x2 = 0.8997 | – | 0.65
x2 = 0.8998 | 0.459 | –
x2 = 0.9497 | 0.361 | 0.508
